Test results from patent US12599603B2, “Methods of treatment” (INTRA-CELLULAR THERAPIES, INC., priority 2019, dated 2026).

Assays:
[1] = test system: CT26 murine cancer cells; experiment: Growth of CT26 murine colon carcinoma tumors in BALB/C mice (Example 1); assay type: in vivo; conditions: 50 mg/kg once daily i.p. from day 7, after 30 days, vs untreated control (FIG. 1)
Method: Aliquots of cancerous cells are injected into the subscapular space of BALB/C mice to induce colon carcinoma. The tumors are allowed to grow for 7 days, when tumor volume is measured. Once a tumor has formed, drug treatment is initiated (50 mg/kg Compound 1, once daily, i.p. in 0.5% methylcellulose vehicle) and tumor growth is observed and recorded daily. Compounds 1 is shown below:
The mice were sacrificed at thirty days post-injection, and the tumors are isolated from the mice.

[2] = test system: immune cells in the tumor microenvironment of CT26 tumors; experiment: Flow cytometry of immune cells in dissociated CT26 tumors (Example 1); assay type: in vivo, BALB/C mice; conditions: 50 mg/kg once daily i.p.; tumors isolated at thirty days post-injection; flow cytometry (FIG. 2)
Method: The tumors were then enzymatically dissociated into a single cell suspensions, stained with fluorophore-tagged antibodies and are analyzed by flow cytometry. Cells were sorted and analyzed for immune markers. […] In turn, it is believed this this allows the innate immune system to more efficiently target tumor cells, which is consistent with the results observed here (i.e., increased activation of T-cells in the tumor microenvironment).

[3] = test system: CT26 xenograft tumors; experiment: Growth of CT26 xenograft tumors, Compound 1 alone or with anti-PD-1 (Example 2); assay type: in vivo, BALB/c mice; conditions: Compound 1 50 mg/kg i.p. qd 5 days/week from day 7; anti-PD-1 sub-effective dose i.p. days 7, 10 and 14; isotype group zero out of nine
Method: The effects of Compound 1, alone or combination with sub-effective doses of the checkpoint inhibitor, anti-PD-1, were assessed on the growth of CT26 xenograft tumors in BALB/c mice. Treatment-naïve tumor-bearing mice (i.e., isotype group) were compared with groups of mice receiving monotherapy of Compound 1 defined in Example 1, mice receiving a sub-effective dose of a checkpoint inhibitor (anti-PD-1 antibody), and mice receiving both Compound 1 and a sub-effective dose of anti-PD-1 antibody.
(§1) BALB/c mice were subcutaneously injected with CT26 cells at day 0 and then divided into four groups at day 7: (1) Compound 1 treatment, (50 mg/kg, i.p. qd), 5 days/week; (2) Isotype group, ip mlgG isotype at days 7, 10 and 14; (3) Anti-PD-1 group, administered i.p. at days 7, 10 and 14; and (4) Combination group, treated with Compound 1 and anti-PD-1 as group 1 and group 3. Tumor volumes were measured every 2 or 3 days. At day 17-18, tumors were excised, dissected, and used to make single cell suspensions. These tumor single cell suspensions were incubated with FC blocker (eBioscience) and then stained with antibodies on ice in the dark. Samples were acquired on a FACSCalibur, LSRII or LSRII yellow (BD Biosciences), and analyzed with FlowJo (Tree Star).
At the end of experiments, tumors were also weighed.

[4] = test system: tumor-infiltrating immune cells of CT26 tumors; experiment: FACS of tumor-infiltrating immune cells in CT26 tumors (Example 2); assay type: in vivo, BALB/c mice; conditions: FACS of tumors excised at day 17-18
Method: as §1

CN1C(=O)c2c(nn(Cc3ccc(-c4cccc(F)n4)cc3)c2Nc2ccccc2)N2C1=N[C@@H]1CCC[C@@H]12 [Compound 1]
tumor growth [1]: significantly slowed tumor growth | CD8 T-cells in the tumor microenvironment [2]: significant increases | macrophage presence in the tumor microenvironment [2]: significant decrease | monocytes in the tumor microenvironment [2]: significant increases | mice showing tumor clearance (tumor volume smaller than 100 mm^3) [3]: one out of five | numbers of CD45+ tumor (infiltrating) macrophages [4]: significantly decreased numbers | numbers of CD45+ tumor (infiltrating) monocytes [4]: significantly decreased numbers
